Legend:
[1] = test system: nitric oxide (NO) production in RAW264.7 cells; test: NO assay in RAW264.7 cells; format: cell-based, mouse; details: 10 μM Compound 1, IFN-γ
Method: RAW264.7 cells (2×10^4 cells/well), wild-type (8×10^3 cells/well), Nrf2−/−(7×10^3 cells/well), and Keap1−/−(5×10^3 cells/well) MEF were seeded into 96-well format. Cells were pretreated for 1 h with a solvent control (DMSO, 1%, v/v) or serial dilutions of isolated compounds or extracts before addition of LPS (1 μg/mL) or IFN-γ (10 ng/mL). […] In each case, 50 μL of the media was combined with 50 μL Griess Reagent (Promega). Absorbance was measured at 540 nm and compared with a calibration curve generated using the provided […] standard.

Nqo1 [2] = test: Nqo1 activity assay in MEFs; format: cell-based, murine
Method: Wild-type (8×10^3 cells/well), Nrf2−/− (8×10^3 cells/well), and Keap1−/− (4×10^3 cells/well) MEFs were seeded into a 96-well format and incubated overnight at 37° C. Cells were treated with a solvent control (DMSO, 1%, v/v) or serial dilutions of isolated compounds or extracts for 40 hours.

Nrf2 = test: Nuclear translocation of NRF2 in IMR-32 cells; format: cell-based, human
Method: IMR-32 cells were seeded in 6-well format at 2×10^6 cells/well and incubated at 37° C. overnight. The cells were treated with a solvent control (DMSO, 1%, v/v) or serial dilutions of isolated compounds or extracts for the indicated periods of time. The cytosolic and nuclear extracts were separated and prepared using a commercial kit, NE-PER Nuclear and Cytoplasmic Extraction Reagents (Thermo Scientific). Briefly, cells were gently washed once with 200 μL at DPBS before being resuspended in 1 mL DPBS, transferred to a pre-chilled tube, and pelleted at 500×g for 3 min at 4° C. The supernatant was removed and cells were resuspended in ice-cold CER I containing 1% cOmplete, EDTA-free Protease Inhibitor Cocktail (v/v, Roche Diagnostics) by vigorous vortexing. After addition of ice-cold buffer CER II, the samples were vortexed vigorously for 5 s and incubated on ice for 1 min twice before being pelleted at 16,000×g for 5 min at 4° C. The supernatant was transferred to a fresh tube and used as cytosolic stock. The pellet was washed twice by adding 75 μL ice-cold DPBS, flicking, centrifuging, and removing the supernatant before resuspension in ice-cold buffer NER supplemented with 1% cOmplete, EDTA-free Protease Inhibitor Cocktail (v/v). […] Subsequently, the cellular and nuclear extracts were analyzed by immunoblot.

Bacillus cereus = test: Preliminary antibacterial testing; format: cell-based
NQO1 [3] = test: Immunoblot of NQO1 after NAC pre-treatment in IMR-32 cells; format: cell-based, human; details: pre-treated with N-acetylcysteine
Method: IMR-32 cells were seeded into 6-well plates (7×10^5 cells/well) and incubated at 37° C. for 24 h. The cells were then treated with a solvent control (DMSO, 1%, v/v), isolated compounds, or extracts. After 24 h, cells were lysed in 200 μL of PhosphoSafe buffer (Novagen). Protein concentrations were measured by using a BCA assay kit (Pierce). Equal amounts of total protein were separated using SDS-PAGE (NuPAGE® Novex® 4-12% Bis-Tris Mini gels, Invitrogen) and transferred onto a PVDF membrane. Membranes were blocked overnight with 5% BSA at 4° C. and incubated with indicated primary antibodies for 2 h at room temperature. After washing, the membranes were then incubated with the corresponding secondary antibodies (HRP-linked) for 1 h at room temperature and detected with Supersignal Femto Western Blotting kit (Pierce). For assays in the presence of N-acetylcysteine (NAC), the cells were pretreated with the antioxidant (NAC at 1 mM) for 2 h prior to treatment with the solvent control, isolated compounds, or extracts.

Keap1 (Cys-151) = target: T1, Keap1 (Cys-151) (Homo sapiens, UniProt Q14145); test: Keap1 Cys-151 reactivity in co-transfected HEK293 cells; format: cell-based; details: for Keap1-associated Cul3 / Keap1-Cul3 interaction: Keap1-CBD and HA-Cul3
T1 construct: expressed in transfected cells; host or cells: HEK293
Excerpt: The ARE-luciferase reporter construct (ARE-luc) contains the core sequence of human NQO1-ARE1. […] Mol. Cell. […] The Keap1-CBD plasmid carries the entire open reading frame (ORF) of human Keap1 fused to the chitin binding domain (CBD) of the Bacillus circulans chitinase A1 gene upstream of the Keap1 stop codon. Oligonucleotide-directed mutagenesis was used to generate the Keap1-C151S-CBD and Keap1-C288S-CBD plasmids. The HA-Cul3 plasmid was constructed by fusing an N-terminal hemagglutinin (HA) tag with a cDNA sequence coding for amino acids 1-380 of human Cul3 gene. The Gal4-Neh2 expression vector contains the codons for the first 97 amino acids (Neh2 domain) of human Nrf2 fused to the ORF of the Gal4 DNA-binding domain
The reactivity at the amino acid level of KEAP1 was then investigated. […] In order to evaluate specific cysteine residues which may be alkylated in the presence of cymopols, HEK293 cells were co-transfected with either a mock plasmid, a wild-type Keap1-CBD, or a Keap1-C151S-CBD and HA-Cul3 (to evaluate Cul3 binding inhibition upon cymopol addition), HA-Nrf2 (to evaluate Nrf2-Keap1 interactions), or Gal4-Neh2 and HA-Ub (to evaluate ubiquitination patterns of Nrf2).

[4] = test system: ARE-luciferase reporter (human NQO1-ARE) in LNCaP cells; test: ARE-luc reporter assay in LNCaP cells; format: cell-based; details: LNCaP cell line
Excerpt: The ARE-luciferase reporter construct (ARE-luc) contains the core sequence of human NQO1-ARE1. The mock plasmid (pcDNA3-mRFP) was purchased from Addgene (plasmid 13032). The following plasmids were reported by Zhang et a/.2003 [Zhang, D. D., and Hannink, M. (2003) Distinct cysteine residues in Keap1 are required for Keap1-dependent ubiquitination of Nrf2 and for stabilization of Nrf2 by chemopreventive agents and oxidative stress. Mol. Cell. Biol. 23, 8137-8151]. The Keap1-CBD plasmid carries the entire open reading frame (ORF) of human Keap1 fused to the chitin binding domain (CBD) of the Bacillus circulans chitinase A1 gene upstream of the Keap1 stop codon. […]
An ARE-luciferase reporter plasmid and CMV-GFP plasmid (to monitor transfection efficiency) were co-transfected into a human androgen-sensitive prostate cancer cell line, LNCaP (6×10^4 cells/well), and a human neuroblastoma cell line, IMR-32 (3×10^4 cells/well), using Fugene® HD (Roche Diagnostics) in 96-well format. […] After 24 hours of incubation, cells were treated with extracts from Cymopolia barbata, a negative control (DMSO, 1%, v/v), and a positive control ([…] sulforaphane, SF, and tert-butylhydroquinone, tBHQ, respectively.) 24 hours post-treatment, luciferase activity was detected using BriteLite detection reagent (PerkinElmer). […]

T1 sequence (Q14145 whole entry): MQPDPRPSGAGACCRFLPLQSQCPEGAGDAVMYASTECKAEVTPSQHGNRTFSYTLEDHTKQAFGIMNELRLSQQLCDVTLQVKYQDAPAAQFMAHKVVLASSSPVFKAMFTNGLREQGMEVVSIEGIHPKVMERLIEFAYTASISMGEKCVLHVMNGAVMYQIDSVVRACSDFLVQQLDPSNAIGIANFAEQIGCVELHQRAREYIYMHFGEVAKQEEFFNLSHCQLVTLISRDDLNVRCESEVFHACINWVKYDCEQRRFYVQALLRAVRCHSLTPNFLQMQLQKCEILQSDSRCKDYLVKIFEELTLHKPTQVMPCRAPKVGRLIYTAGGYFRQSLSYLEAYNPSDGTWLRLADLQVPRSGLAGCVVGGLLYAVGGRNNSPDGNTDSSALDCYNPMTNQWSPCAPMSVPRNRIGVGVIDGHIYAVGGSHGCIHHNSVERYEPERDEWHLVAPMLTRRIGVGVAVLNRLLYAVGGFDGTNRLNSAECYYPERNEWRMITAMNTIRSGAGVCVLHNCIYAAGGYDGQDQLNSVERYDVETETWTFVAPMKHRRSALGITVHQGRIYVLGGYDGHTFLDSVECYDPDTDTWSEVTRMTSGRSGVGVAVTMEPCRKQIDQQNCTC

CC(C)=CCC/C(C)=C/Cc1cc(O)c(Br)cc1O [Compound 1, (E)-2-bromo-5-(3,7-dimethylocta-2,6-dien-1-yl)benzene-1,4-diol]
reduction in levels of NO [1]: > 96%
Nqo1 enzymatic activity (Nqo1 [2]; each MEF cell type relative to DMSO control): induce Nqo1 enzymatic activity in a dose-dependent manner
relative Nqo1 activity, wild-type versus knockout MEFs (Nqo1 [2]; high concentrations): more so in wild-type than in Nrf2 and Keap1 knockout MEFs
time after which increased nuclear NRF2 levels were seen (Nrf2; IMR-32 cells): 18 h
nuclear translocation of NRF2 (Nrf2; IMR-32 cells, 0, 1, 6 or 18 hours): induced nuclear translocation of NRF2
antibacterial activity (Bacillus cereus): inhibited
translation of NQO1 after NAC pre-treatment (NQO1 [3]): still able to induce the translation of NQO1
Keap1-associated Cul3 / Keap1-Cul3 interaction (Keap1 (Cys-151)): increase binding of Keap1-Cul3 interaction
Keap1-associated Cul3 / Keap1-Cul3 interaction (Keap1 (Cys-151); listed as compound 1): reduced
dimerization of Keap1 (Keap1 (Cys-151); Keap1-CBD and HA-Nrf2, dependent on Cys-151): increase dimerization of Keap1
Neh2 ubiquitination (Keap1 (Cys-151); wild-type Keap1, Gal4-Neh2 and HA-Ub, preliminary data): less Neh2 ubiquitination
levels of Neh2 (Keap1 (Cys-151); wild-type Keap1, preliminary data): higher levels of Neh2
activation of ARE-luc [4]: most active
